Assays:
Type in all cases: cell-based
[1] = test system: chondrospheres from primary sheep chondrocytes; experiment: Histological analysis on semi-thin sections of tissue spheroids (toluidine blue)
Protocol: Tissue spheroids were fixed with 2.5% glutaraldehyde/PBS and then treated with 1% osmium tetraoxide/PBS. The samples were dehydrated by soaking in a series of solutions of increasing concentrations of ethanol, stained with 1% uranyl acetate/70% ethanol and finally embedded to araldite-epon mixture. Semi-thin sections were prepared on a LKB-III ultratome (Sweden), stained with 1% toluidine blue and then examined using a light microscope (Leica DM 2500, Germany) equipped with a digital camera (Leica DFC 290, Germany).
A histological analysis on semi-thin sections of 3-day-old tissue spheroids was performed in order to estimate possible toxic effects and to determine an optimal nontoxic Gd3+ concentration (FIG. 3a). […] Scale bar—100μm.

[2] = test system: chondrospheres from primary sheep chondrocytes; experiment: Tissue spheroid viability, CellTiter-Glo 3D (cytoplasmic ATP luminescence); conditions: 24 hours of incubation
Protocol: The viability of tissue spheroids was assessed using the CellTiter-Glo 3D kit according to the manufacturer protocol. Briefly, 3-day-old tissue spheroids with a starting cell number of 8000 cells were placed in 0, 50 and 250 mM Gd3+ concentrations for 24 hours. Then CellTiter-Glo 3D kit was added and luminescence was recorded after 30 min incubation using VICTOR X3 Multilabel Plate Reader (Perkin Elmer, USA).
(§1) The viability of cells within tissue spheroids was analyzed by measuring the luminescent signal generated by luciferin-luciferase interconnection as a function of cytoplasmic ATP concentration. […] The highly statistically significant difference (p<0.0005) in cell density corresponded to 85% in 50 mM Gd3+ solution compared to 100% in 0 mM Gd3+ solution, while the cell density at 250mM Gd3+ concentration was 40% (FIG. 3c).

[3] = test system: chondrospheres from primary sheep chondrocytes; experiment: Estimation of spheroid cell density by cell counting on semi-thin sections
Protocol: Spheroid cell density was estimated by analysis of semi-thin sections of tissue spheroids using Image J 1.48v software (NIH, Bethesda, Md., USA).
as §1

[4] = test system: chondrospheres from primary sheep chondrocytes; experiment: Mechanical testing of tissue spheroids (parallel-plate compression, Microsquisher); conditions: for elastic modulus of spheroids: 24 hours, 0 mM control 2.91±0.15 kPa
Protocol: The mechanical properties of tissue spheroids were measured by a micro-scale parallel-plate compression testing system Microsquisher (CellScale, Canada) with associated SquisherJoy software. Tissue spheroids with a starting cell number of 8000 cells were formed using Corning spheroid microplates. They were cultured 3 days and then placed in 0, 50 and 18 250 mM Gd3+ concentrations for 24 hours prior to mechanical characterization. For mechanical testing spheroids were placed in a PBS-filled bath at 37° C. and compressed to 50% deformation in 20 sec. The microbeams with diameters 152.4 μm (recommended max force […]) and 304.8 μm (recommended max force […]) were employed depending on the stiffness and sensitivity required to measure tissue spheroids from different cell types. The force-displacement data obtained from the compression test were converted to stress-strain curves and the lower portion of the curve (0-20% strain) was used to obtain a linear regression line and estimate the Young's modulus. In each group eight samples of spheroids were measured.
The influence of gadolinium Gd3+ on mechanical properties of tissue spheroids was estimated by tensiometry using parallel plates modification. […] The values of elastic modulus of spheroids in 0 and 50 mM Gd3+ solutions were 2.91±0.15 kPa and 18 2.95±0.1 kPa, correspondingly. […] This observation can be explained by low viability of tissue spheroids in 250 mM Gd3+ solution.
The sharp rise of the curve in the area of high strain values is associated with an increase of the tissue spheroid cross section. […] The stress-strain curve changes practically linearly before this strain; in this section we calculated the Young's modulus.

[5] = test system: chondrospheres from primary sheep chondrocytes; experiment: Spheroid fusion assay (spheroid doublets)
Protocol: Spheroid fusion assay was performed using Corning spheroid microplates (Corning, cat.# 4520). Pairs of 3-day-old tissue spheroids with a starting cell number of 8000 cells were placed in contact in 0, 50 and 250 mM Gd3+ concentrations and incubated for 7 days. Bright-field images of spheroid doublets were obtained at points 0 h, 4 h, 6 h, 1 day, 2 days, 3 days, 4 days and 7 days using Nikon Eclipse Ti-S microscope. Contact length, intersphere angle and doublet length were measured using Image J 1.48v software (NIH, Bethesda, Md., USA) and plotted as a function of time using GraphPad Prism software (GraphPad Software, Inc., La Jolla, Calif.). Doublet length (FIG. 5) was normalized to initial doublet length. Measurements for each parameter were reported as mean ±S.E.M.
To investigate the fusion of tissue spheroids at different Gd3+ concentrations, the pairs of spheroids were placed in contact with each other in the same well of low adhesion microplate and allowed to fuse for 7 days. The kinetics of tissue spheroid fusion was monitored and analyzed daily at bright-field under inverted microscope. Contact length, intersphere angle and doublet length were measured. […] Spheroid doublet in 0 mM Gd3+ solution shortened faster than spheroid doublet in 50 mM Gd3+ solution.

[6] = test system: chondrospheres from primary sheep chondrocytes; experiment: Fusion of 30 chondrospheres into a microtissue construct in non-adhesive microplate
Protocol: To check the possibility of microtissue construct biofabrication at different concentrations of Gd3+, 30 chondrospheres were placed in the same well of non-adhesive microplate and allowed fusion for 48 hours (FIG. 5c). […] Scale bar −500 μm.

Compound: CNC(=O)CN(CCN(CCN(CC(=O)[O-])CC(=O)NC)CC(=O)[O-])CC(=O)[O-].[Gd+3] [Gd3+, Gadodiamide]
- cell density (histology, qualitative) ([1]; 50 mM Gd3+ solution): cell density did not change
- cytoplasm staining ([1]; 50 mM Gd3+ solution): slightly reduced
- toxic effect on chondrospheres morphology ([1]; 250 mM Gd3+, 3-day-old spheroids, toluidine blue staining): severe toxic effect
- cell density (histology, qualitative) ([1]; 250 mM Gd3+, cell death and apoptosis, pycnotic nuclei, extracellular debris): cell density dramatically reduced
- viability of tissue spheroids ([2]; 50 mM Gd3+): remained viable
- viability of tissue spheroids ([2]; 250 mM Gd3+): significant toxic effect
- cell density compared to 100% in 0 mM Gd3+ solution ([3]; 50 mM Gd3+ solution): 85%
- cell density compared to 100% in 0 mM Gd3+ solution ([3]; 250 mM Gd3+): 40%
- effect on tissue spheroids Young's modulus ([4]; 50 mM Gd3+ in the growth medium): does not affect
- elastic modulus of spheroids ([4]; 50 mM Gd3+): 2.95±0.1 kPa
- decrease of Young's modulus ([4]; 250 mM Gd3+): ~93%
- elastic modulus of spheroids ([4]; 250 mM Gd3+): 0.14±0.05 kPa
- fusion of spheroid pair (contact length, intersphere angle, doublet length) ([5]; 50 mM Gd3+, up to 7 days): contact lengths and intersphere angles increased as a function of time and doublet lengths shortened gradually
- cytotoxicity ([5]; 250 mM Gd3+): high cytotoxicity
- fusion of spheroid pair ([5]; 250 mM Gd3+, up to 7 days): continued to fuse during first 24 hours and then no further progressive aggregation was observed
- intersphere angle ([5]; seventh day of incubation, follows the 0 and 50 mM Gd3+ results, concentration not restated, indicates complete fusion): 179 °
- construct formation from 30 chondrospheres ([6]; 50 mM Gd3+, 2 days of incubation): formation of compact constructs was observed
- construct formation from 30 chondrospheres ([6]; 250 mM Gd3+, 48 hours): no constructs were formed

Reference: patent publication US20200309872A1, “APPARATUS AND METHOD OF AIR-SUSPENDED BIOFABRICATION OF TISSUE-ENGINEERED ORGAN CONSTRUCTS AND CONGLOMERATES OF SPHEROIDS, CELLS AND OTHER BIOLOGICAL OBJECTS BY USING MAGNETIC FIELD” (priority 2019, published 2020)
